Test results from patent US20240174680A1, “CDK2 INHIBITORS AND METHODS OF USING THE SAME” (Cedilla Therapeutics, Inc., priority 2021, published 2024).
pIC50: −log10 of the molar value.

molecular target: CDK2/Cyclin E1 (Homo sapiens, UniProt P24941); test: CDK2/Cyclin E1 Caliper LabChip EZ Reader mobility shift assay; assay type: biochemical; set-up: purchased Eurofins 14-475; conditions: read-out: Caliper Assay (CDK2/CCNE1): IC50
Method in brief: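 Substrate-to-product conversion of fluorescent peptide (1.5 μM final) read by capillary electrophoresis after 100 min reaction, EDTA-quenched. Enzyme (2.5 nM final) and ATP (100 μM final) were preincubated 30 min with inhibitor dilutions first. % activity vs concentration fitted four-parameter for IC50.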

Row | Compound | pIC50
1 | CC1(C)C[C@@H]1C(=O)N1CC2(CN(C(=O)c3cnn(Cc4ccccc4)c3)C[C@@H]2C(=O)N[C@H]2CCc3cc(Cl)ccc32)C1 [I-133B] | 5.00 to 6.00
2 | CNC(=O)[C@@H](NC(=O)[C@@H]1CN(C(=O)c2cncs2)CC12CN(C(=O)[C@H]1CC1(C)C)C2)[C@@H](C)OC[C@H]1CC[C@@H](C)CC1 [I-354] | ≥ 8.00
3 | CC1(C)C[C@@H]1C(=O)N1CC2(CN(C(=O)c3cnn(Cc4ccccc4)c3)C[C@@H]2C(=O)Nc2cccc(Cc3ccccc3)c2)C1 [I-75B] | 5.00 to 6.00
4 | CNC(=O)[C@@H](NC(=O)[C@H]1CN(C(=O)c2cnc(COC(C)(C)C)s2)CC12CN(C(=O)[C@H]1CC1(C)C)C2)[C@@H](C)OCC1CCCCC1 [I-175B] | 6.00 to 7.00
5 | CNC(=O)[C@@H](NC(=O)[C@H]1CN(C(=O)c2cccnc2)CC12CN(C(=O)[C@H]1CC1(C)C)C2)[C@@H](C)OCc1ccccc1 [I-42B] | < 5.00
6 | CNC(=O)[C@@H](NC(=O)[C@H]1CN(C(=O)c2cn[nH]c2)CC12CN(C(=O)[C@H]1CC1(C)C)C2)[C@@H](C)OCC1CCCCC1 [I-66B] | 5.00 to 6.00
7 | CNC(=O)[C@@H](NC(=O)[C@@H]1CN(C(=O)c2sc(C)nc2C)CC12CN(C(=O)[C@H]1CC1(C)C)C2)[C@@H](C)OCC1CCCCC1 [I-213A] | 7.00 to 8.00
8 | C[C@@H](OCC1CCCCC1)[C@H](NC(=O)C1CN(C(=O)c2cnn(Cc3ccccc3)c2)CC12CN(C(=O)[C@H]1CC1(C)C)C2)C(=O)N1CCC(F)(F)CC1 (stereo partly shown) [I-149 mixture] | ≥ 8.00
9 | CNC(=O)[C@@H](NC(=O)[C@@H]1CN(C(=O)c2cnn(Cc3ccccc3)c2)CC12CN(C(=O)N(C)C1CC1)C2)[C@@H](C)OCC1CCCCC1 [I-295] | 6.00 to 7.00
10 | CCCCC1CC1C(=O)N1CC2(CN(C(=O)c3cnn(Cc4ccccc4)c3)C[C@@H]2C(=O)N[C@H](C(=O)NC)[C@@H](C)OCc2ccccc2)C1 (stereo partly shown) [I-94B] | < 5.00
11 | COCC1CCCN(C(=O)[C@@H](NC(=O)C2CN(C(=O)c3cnn(Cc4ccccc4)c3)CC23CN(C(=O)[C@H]2CC2(C)C)C3)[C@@H](C)OCc2ccccc2)C1 (stereo partly shown) [I-64] | 7.00 to 8.00
12 | CNC(=O)[C@@H](NC(=O)[C@@H]1CN(C(=O)c2cnn(Cc3ccccc3)c2)CC12CN(C(=O)C1(c3ccc(C(C)(C)C)cc3)CC1)C2)[C@@H](C)OCc1ccccc1 [I-80A] | < 5.00
13 | C[C@@H](OCC1CCCCC1)[C@H](NC(=O)[C@@H]1CN(C(=O)c2cnn(Cc3ccccc3)c2)CC12CN(C(=O)[C@H]1CC1(C)C)C2)C(=O)N1CCC[C@H](C(=O)O)C1 [I-483] | ≥ 8.00
14 | C[C@@H](OCC1CC(F)(F)C1)[C@@H](CO)NC(=O)[C@@H]1CN(C(=O)c2cncs2)CC12CN(C(=O)[C@H]1CC1(C)C)C2 [I-412] | 7.00 to 8.00
15 | CNC(=O)[C@@H](NC(=O)[C@@H]1CN(C(=O)c2cnn(Cc3ccccc3)c2)CC12CN(C(=O)[C@H]1CC1(C)C)C2)[C@@H](C)OCC(C)(C)C [I-130A] | 7.00 to 8.00
16 | C[C@@H](OCC1CCCCC1)[C@H](NC(=O)[C@@H]1CN(C(=O)c2cnn(Cc3ccccc3)c2)CC12CN(C(=O)[C@H]1CC1(C)C)C2)C(=O)N1CCC[C@@H]1CN [I-238] | 7.00 to 8.00
17 | CNC(=O)[C@@H](NC(=O)[C@@H]1CN(C(=O)c2cn[nH]c2)CC12CN(C(=O)CC1CC1)C2)[C@@H](C)OCc1ccccc1 [I-41A, (S)—N-((2S,3R)-3-(benzyloxy)-1-(methylamino)-1-oxobutan-2-yl)-2-(2-cyclopropylacetyl)-6-(1H-pyrazole-4-carbonyl)-2,6-diazaspiro[3.4]octane-8-carboxamide] | < 5.00
18 | CNC(=O)[C@@H](NC(=O)[C@H]1CN(C(=O)c2sc(C)nc2C)CC12CN(C(=O)[C@H]1CC1(C)C)C2)[C@@H](C)OCC1CCCCC1 [I-213B] | < 5.00
19 | CNC(=O)[C@@H](NC(=O)[C@H]1CN(C(=O)c2cnn(Cc3ccccc3)c2)CC12CN(C(=O)[C@H]1CC1(C)C)C2)[C@@H](C)OCC(C)(C)C [I-130B] | 6.00 to 7.00
20 | CNC(=O)[C@@H](NC(=O)[C@@H]1CN(C(=O)c2cncs2)CC12CN(Cc1cnco1)C2)[C@@H](C)OCC12CCC(CC1)OC2 [I-350] | < 5.00
21 | CNC(=O)[C@@H](NC(=O)[C@@H]1CN(Cc2cnc[nH]2)CC12CN(C(=O)[C@H]1CC1(C)C)C2)[C@@H](C)OCc1ccccc1 [I-77A, (S)-6-((1H-imidazol-5-yl)methyl)-N-((2S,3R)-3-(benzyloxy)-1-(methylamino)-1-oxobutan-2-yl)-2-((S)-2,2-dimethylcyclopropane-1-carbonyl)-2,6-diazaspiro[3.4]octane-8-carboxamide] | < 5.00
22 | CC1(C)C[C@@H]1C(=O)N1CC2(CN(C(=O)c3cnn(Cc4ccccc4)c3)C[C@@H]2C(=O)N[C@H]2C[C@@H]2c2cccc(Cl)c2)C1 [I-140B] | < 5.00
23 | CC1(C)C[C@@H]1C(=O)N1CC2(CN(C(=O)c3cnn(Cc4ccccc4)c3)C[C@H]2C(=O)N2CCC(Cc3ccccc3)CC2)C1 [I-58A] | 6.00 to 7.00
24 | CNC(=O)[C@@H](NC(=O)[C@H]1CN(C(=O)c2cnn(Cc3ccccc3)c2)CC12CN(C(=O)C1CC1(C)C)C2)[C@@H](C)O (stereo partly shown) [I-88B] | < 5.00
25 | C[C@@H](OCC1CCCCC1)[C@H](NC(=O)[C@@H]1CN(C(=O)c2cnn(Cc3ccccc3)c2)CC12CN(C(=O)[C@H]1CC1(C)C)C2)C(=O)N1CCC(c2cc[nH]n2)CC1 [I-443] | ≥ 8.00
26 | CNC(=O)[C@@H](NC(=O)[C@@H]1CN(C(=O)c2sc(COC)nc2C)CC12CN(C(=O)[C@H]1CC1(C)C)C2)[C@@H](C)OCC1CCCCC1 [I-162A] | 7.00 to 8.00

Row | Compound | pIC50
27 | CNC(=O)[C@@H](NC(=O)[C@@H]1CN(C(=O)c2cnn(Cc3ccccc3)c2)CC12CN(C(=O)C1(C3CC3)CC1)C2)[C@@H](C)OCc1ccccc1 [I-114A] | 6.00 to 7.00
28 | C[C@@H](OCc1ccccc1)[C@H](NC(=O)[C@@H]1CN(C(=O)c2cncs2)CC12CN(C(=O)[C@H]1CC1(C)C)C2)C(=O)N(C)C [I-416] | 7.00 to 8.00
29 | CC1(C)C[C@@H]1C(=O)N1CC2(CN(C(=O)c3cncs3)C[C@H]2C(=O)NC(c2cccc(C3CCCCC3)n2)P(C)(C)=O)C1 (stereo partly shown) [I-494] | 6.00 to 7.00
30 | CNC(=O)[C@@H](NC(=O)[C@@H]1CN(C(=O)Cc2cnn(C)c2)CC12CN(C(=O)[C@H]1CC1(C)C)C2)[C@@H](C)OCc1ccccc1 [I-384] | < 5.00
31 | CNC(=O)C(NC(=O)[C@@H]1CN(C(=O)c2cn[nH]c2)CC12CN(C(=O)[C@H]1CC1(C)C)C2)C(O)Cc1ccccc1 (stereo partly shown) [I-298] | < 5.00
32 | CNC(=O)[C@@H](NC(=O)C1(F)CN(C(=O)c2cnn(Cc3ccccc3)c2)CC12CN(C(=O)[C@H]1CC1(C)C)C2)[C@@H](C)OCC1CCCCC1 (stereo partly shown) [I-501] | 7.00 to 8.00
33 | CNC(=O)[C@@H](NC(=O)[C@@H]1CN(C(=O)c2cncs2)CC12CN(C(=O)[C@H]1CC1(C)C)C2)[C@H](O)CC1CCCCC1 [I-379] | < 5.00
34 | CNC(=O)[C@@H](NC(=O)[C@H]1CN(C(=O)c2scnc2C2CCCC2)CC12CN(C(=O)[C@H]1CC1(C)C)C2)[C@@H](C)OCC1CCCCC1 [I-224A] | 5.00 to 6.00
35 | CNC(=O)[C@@H](NC(=O)C1CN(C(=O)c2cnn(Cc3cccnc3)c2)CC12CN(C(=O)C1CC1(C)C)C2)[C@@H](C)OCc1ccccc1 (stereo partly shown) [I-15] | 6.00 to 7.00
36 | C[C@@H](NC(=O)[C@@H]1CN(C(=O)c2cnn(Cc3ccccc3)c2)CC12CN(C(=O)[C@H]1CC1(C)C)C2)c1cccc(F)c1 [I-128A] | < 5.00
37 | CNC(=O)[C@@H](NC(=O)[C@H]1CN(C(=O)Nc2cnn(Cc3ccccc3)c2)CC12CN(C(=O)[C@H]1CC1(C)C)C2)[C@@H](C)OCc1ccccc1 [I-48B] | < 5.00
38 | C[C@@H](OCC1CCOCC1)[C@H](NC(=O)[C@@H]1CN(C(=O)c2cn[nH]c2)CC12CN(C(=O)[C@H]1CC1(C)C)C2)C(=O)N1CCC(F)(F)CC1 [I-297] | 7.00 to 8.00
39 | CNC(=O)[C@@H](NC(=O)[C@@H]1CN(C(=O)c2cccnc2)CC12CN(C(=O)[C@H]1CC1(C)C)C2)[C@@H](C)OCc1ccccc1 [I-42A] | 5.00 to 6.00
40 | CC1(C)C[C@@H]1C(=O)N1CC2(CN(C(=O)c3cnn(Cc4ccccc4)c3)C[C@@H]2C(=O)N[C@H]2CCc3cc(Cl)ccc32)C1 [I-120B] | 5.00 to 6.00
41 | C[C@@H](OCC1CCC(F)(F)CC1)[C@H](NC(=O)[C@H]1CN(C(=O)c2cn[nH]c2)CC12CN(C(=O)[C@H]1CC1(C)C)C2)C(=O)N1CCC(F)(F)CC1 [I-228B] | 6.00 to 7.00
42 | COC(=O)[C@H](CO)NC(=O)[C@H]1CN(C(=O)c2cnn(Cc3ccccc3)c2)CC12CN(C(=O)[C@H]1CC1(C)C)C2 [I-209B] | < 5.00
43 | Cc1noc([C@H](C)NC(=O)[C@@H]2CN(C(=O)c3cnn(Cc4ccccc4)c3)CC23CN(C(=O)[C@H]2CC2(C)C)C3)n1 [I-158A] | < 5.00
44 | Cc1ccc(C(C)NC(=O)[C@@H]2CN(C(=O)c3cnn(Cc4ccccc4)c3)CC23CN(C(=O)[C@H]2CC2(C)C)C3)nn1 (stereo partly shown) [I-366] | 5.00 to 6.00
45 | CNC(=O)[C@@H](NC(=O)[C@H]1CN(C(=O)c2scnc2Cl)CC12CN(C(=O)[C@H]1CC1(C)C)C2)[C@@H](C)OCC1CCCCC1 [I-157B] | 6.00 to 7.00
46 | Cc1ccc(CNC(=O)[C@H]2CN(C(=O)c3cnn(Cc4ccccc4)c3)CC23CN(C(=O)[C@H]2CC2(C)C)C3)nn1 [I-381] | < 5.00
47 | C[C@@H](OCC1CCCCC1)[C@H](NC(=O)C1CN(C(=O)c2cnn(Cc3ccccc3)c2)CC12CN(C(=O)[C@H]1CC1(C)C)C2)C(=O)N1CCCC(CO)C1 (stereo partly shown) [I-105] | ≥ 8.00
48 | COC[C@H]1CCCN(C(=O)[C@@H](NC(=O)[C@@H]2CN(C(=O)c3cncs3)CC23CN(C(=O)[C@H]2CC2(C)C)C3)[C@@H](C)OCc2ccccc2F)C1 [I-321] | 7.00 to 8.00
49 | C[C@@H](OCC1CCC(F)(F)CC1)[C@H](NC(=O)[C@@H]1CN(C(=O)c2cncs2)CC12CN(C(=O)[C@H]1CC1(C)C)C2)C(=O)N1CCC[C@H](COC(F)(F)F)C1 [I-326] | ≥ 8.00
50 | CC1(C)C[C@@H]1C(=O)N1CC2(CN(C(=O)c3cnn(Cc4ccccc4)c3)C[C@H]2C(=O)Nc2cccc(Cc3ccccc3)c2)C1 [I-75A] | 5.00 to 6.00
51 | CNC(=O)[C@H](CCCc1ccccc1)NC(=O)[C@H]1CN(C(=O)c2cnn(Cc3ccccc3)c2)CC12CN(C(=O)[C@H]1CC1(C)C)C2 [I-101B] | < 5.00
52 | C[C@@H](OCC1(C(F)(F)F)CC1)[C@H](NC(=O)[C@@H]1CN(C(=O)c2cncs2)CC12CN(C(=O)[C@H]1CC1(C)C)C2)C(=O)N1CCC(F)(F)CC1 [I-287] | 6.00 to 7.00
